As a reminder, the pIC50 is the negative decadic logarithm of the IC50, by convention in mol/L. A lower pIC50 goes with a large IC50. The term inhibition denotes the share of the control response that was lost under treatment. The low end stands for a response near the control, the high end for a response far below the control. In general, MIC refers to the least concentration at which growth counts as inhibited.

Test [1] concerns the target T1, L-2,3-diaminopropanoate--citrate ligase (Staphylococcus aureus (strain NCTC 8325 / PS 47), UniProt Q2G1M9).
T1 sequence (Q2G1M9 whole entry): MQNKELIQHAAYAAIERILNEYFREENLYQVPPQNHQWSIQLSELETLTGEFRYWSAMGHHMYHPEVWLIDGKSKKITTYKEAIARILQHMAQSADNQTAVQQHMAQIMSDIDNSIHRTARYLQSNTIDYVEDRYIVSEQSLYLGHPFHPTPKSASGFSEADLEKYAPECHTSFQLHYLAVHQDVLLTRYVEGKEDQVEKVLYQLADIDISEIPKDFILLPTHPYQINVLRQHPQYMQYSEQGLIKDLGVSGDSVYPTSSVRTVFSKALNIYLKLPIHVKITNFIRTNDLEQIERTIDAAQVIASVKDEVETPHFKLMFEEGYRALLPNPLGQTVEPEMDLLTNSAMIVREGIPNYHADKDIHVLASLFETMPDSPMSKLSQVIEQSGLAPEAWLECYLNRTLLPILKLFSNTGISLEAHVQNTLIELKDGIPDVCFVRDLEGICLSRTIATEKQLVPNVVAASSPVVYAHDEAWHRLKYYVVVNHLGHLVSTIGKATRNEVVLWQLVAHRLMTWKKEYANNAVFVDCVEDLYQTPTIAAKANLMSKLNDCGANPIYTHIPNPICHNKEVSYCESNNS
The test is described as follows: Inhibition of Staphylococcus aureus SbnE incubated for 1 hr by malachite green staining based microplate reader analysis.

Test [2] addresses T2, L-2,3-diaminopropanoate--citrate ligase (Staphylococcus aureus (strain NCTC 8325 / PS 47)) (UniProt Q2G1M9).
T2 sequence (whole entry): T1 sequence (Q2G1M9 whole entry)
Kind of test: Inhibition of Staphylococcus aureus SbnE at 50 uM incubated for 1 hr by malachite green staining based microplate reader analysis relative to control.

In test [3] the test system is Staphylococcus aureus. The test is described as follows: Antibacterial activity against methicillin resistant Staphylococcus aureus CCARM3167 assessed as inhibition in bacterial growth incubated for 18 hrs by microdilution method. The test is classed as functional. On the technique in general: Dilution methods test growth across graded concentrations, often in twofold steps.

Test [4] concerns Staphylococcus aureus. The test is described as follows: Antibacterial activity against […] Staphylococcus aureus ATCC25923 assessed as inhibition in bacterial growth incubated for 18 hrs by microdilution method. The test is classed as functional.
Test [5] deals with Staphylococcus aureus. Kind of test: Antibacterial activity against methicillin resistance Staphylococcus aureus CCARM3167 assessed as inhibition of siderophore production at 1/4 times MIC incubated for 18 hrs by CAS liquid assay. The test is classed as functional, organism-based.
Test [6] concerns Staphylococcus aureus. Kind of test: Antibacterial activity against Staphylococcus aureus ATCC25923 assessed as inhibition of siderophore production at 1/2 times MIC incubated for 18 hrs by CAS liquid assay. The test is classed as functional, organism-based.
For test [7], the system named is Cell membrane. The test is described as follows: Induction of membrane disruption in methicillin resistant Staphylococcus aureus CCARM3167 at MIC incubated for 30 mins PI staining based Flow cytometry. For orientation: A flow cytometer gives signals particle by particle.
Test [8] has as its system Staphylococcus aureus. Kind of test: Antibacterial activity against quinolone-resistant Staphylococcus aureus CCARM3505 assessed as inhibition of bacterial growth incubated for 18 hrs by microdilution method. The class given is functional.
In test [9] the test system is Bacillus cereus. Kind of test: Antibacterial activity against Bacillus cereus ATCC27348 assessed as inhibition of bacterial growth incubated for 18 hrs by microdilution method. The test is classed as functional.
A short description of test [10]: Antibacterial activity against Bacillus subtilis ATCC6633 assessed as inhibition of bacterial growth incubated for 18 hrs by microdilution method. The class given is functional, Bacillus subtilis […].
The subject of test [11] is Escherichia coli. Kind of test: Antibacterial activity against Escherichia coli MC1061 assessed as inhibition of bacterial growth incubated for 18 hrs by microdilution method. The test is classed as functional.
Test [12] deals with Salmonella typhimurium. The test is described as follows: Antibacterial activity against Salmonella typhimurium ATCC14028 assessed as inhibition of bacterial growth incubated for 18 hrs by microdilution method. The test is classed as functional, Salmonella enterica subsp. enterica serovar Typhimurium. Conditions: Salmonella enterica.
The subject of test [13] is Staphylococcus aureus. The test is described as follows: Antibacterial activity against methicillin resistance Staphylococcus aureus assessed as reduction in biofilm formation at 1/2 times MIC incubated 24 hrs by crystal violet staining based microplate reader analysis. The test is classed as functional, organism-based.

Structures are written as SMILES. pIC50: −log10 of the molar value. ≈ marks a conversion by molar mass, not a printed value. Calls of active or inactive are those of the source. The calls are words filed in the database; no cut-off is given here.

For the compound `CC(C)C[C@H]([C@H](O)CCNCc1ccccc1)[C@@H](O)c1cc(O)cc(O)c1`, the negative logarithm of the IC50 (pIC50) in test [1] is 5.46. This compound came in with an inhibition in test [2] of 97.1%. The MIC in [3] and in [4] was above 256 µg/mL each time. Further, the outcome in [5] and in [6] was inactive.

`CC(C)C[C@@H]([C@H](O)C[C@H](O)CCCCCCCCNCc1ccccc1)[C@@H](O)c1cc(O)cc(O)c1`: in test [1], the negative-log IC50 (pIC50) was 4.39. Further, the inhibition in test [2] turned out to be 57.9%. Moreover, the MIC is 0.5 µg/mL (≈ 0.997 µM) in test [3]; 2 µg/mL (≈ 3.99 µM) in test [4]; 0.5 µg/mL (≈ 0.997 µM) in test [8]; 1 µg/mL (≈ 1.99 µM) in test [9]; 4 µg/mL (≈ 7.97 µM) in test [10]; 0.25 µg/mL (≈ 0.498 µM) in test [11]. Besides, in test [12], the MIC was 4 µg/mL (≈ 7.97 µM). Besides, the result in test [5] and in [6] was inactive. The outcome in [7] and in [13] was Active.

Take `C[C@@H](COCc1ccccc1)C[C@H](C)C[C@H](C)C#CC(O)C[C@@H](O)c1cc(O)cc(O)c1` (stereo partly specified): the pIC50 in test [1] is 5.05. In addition, in test [2], the inhibition came out at 76.4%. For the same compound, the MIC is 256 µg/mL (≈ 581 µM) in test [3]; 128 µg/mL (≈ 291 µM) in test [4]; 128 µg/mL (≈ 291 µM) in test [8]; 64 µg/mL (≈ 145 µM) in [9]; above 256 µg/mL in test [10]; above 256 µg/mL in test [11]. The MIC in test [12] was above 256 µg/mL. Besides, the result in test [7] and in test [13] was Active.

In test [1], `CC(C)C[C@H]([C@H](O)CCN)[C@@H](O)c1cc(O)cc(O)c1` gave a pIC50 of 5.74. For the same compound, the inhibition in test [2] was 97.2%. Besides, the MIC in test [3] and in test [4] was above 256 µg/mL in each case. Besides, the outcome in [5] and in test [6] was inactive.

Values taken from ChEMBL document CHEMBL5625182, “Synthesis and antibacterial activities of baulamycin A inspired derivatives” (Eur J Med Chem, 2023).
